The values that follow come from patent US20250236614A1, “BICYCLIC TETRAHYDROAZEPINE DERIVATIVES” (Hoffmann-La Roche Inc., priority 2022, published 2025).

Test [1] has as its target T1, hDGKalpha(1-735)-N-His (DGKA) (Homo sapiens, UniProt P23743).
T1 construct: hDGKalpha(1-735)-N-His; His (N)
The experiment in a line: In vitro DGK inhibition assay (ADP-Glo, in house), DGK alpha. Format: biochemical. The following applies: isomer A; 4 nM DGK α, 25 μM ATP, 125 μM DLG in liposomes, 1 hour reaction; read-out: DGKalpha ADP Glo assay IC50. The method, then: DGK α and ζ kinase use ATP to phosphorylate the substrate 1,2-dilauroyl-sn-glycerol (DLG, incorporated in the liposomes). ATP is converted to ADP as a result of this enzymatic reaction.
After the kinase reaction, an ATP-depletion reagent is added to terminate the kinase reaction and deplete any remaining ATP, leaving only ADP. Second, a detection reagent is added to simultaneously convert ADP to ATP and allow the newly synthesized ATP to be converted to light using a coupled luciferase/luciferin reaction.
Full length DGKA and Z were expressed in Sf21 insect cells by infecting the cells with the baculovirus stock at MOI of 2. Purification of both enzymes was performed as previously described by Takahashi et al., PeerJ, 2018 (Takahashi, D.; Sakane, F. Expression and purification of human diacylglycerolkinase alpha from baculovirus-infected insect cells for structural studies. PeerJ2018, 6, No. e5449).
A concentrated liposome solution was prepared in assay buffer without DTT and BSA: 2 mM of DLG in 21 mM of total liposome (2 mM DLG/8 mM PS/11 mM PC). The reaction mixtures contain the assay buffer with a final DLG concentration of 125 μM ATP concentrations of 25 μM (for DGKA assay) or 50 μM (for DGKZ assay). The reactions were started by addition of DGK α and ζ kinases at 4 nM and 2 nM final concentrations, respectively. After 1 hour reaction, the amount of ADP formed was detected with the ADP-Glo kinase assay (Promega) according to the manufacturer instructions. Compounds were added in 11I-points dose response, starting at 10 mM, 1:3 dilutions, with a final DMSO concentration of […]. The multidrop combi was used as a liquid handler and luminescence was read with 0.5 s by the envision reader (PE).
For orientation: ADP-Glo first removes unused ATP, then detects ADP through luciferase.

In test [2] the test system is primary human T-cells. Description: IL2 secretion measurements in CD3-stimulated T-cells. Format: cell-based. The following applies: Homo sapiens, T-cell, isomer A; for EC50: CD3 antibody-stimulated T-cells, IL2 in supernatant after 24 hours, read-out: Tcell IL2 CD3 EC50; for Emax: CD3 condition, 24 hours, 20 μM reference compound A1 = 100%, DMSO neutral control, read-out: Emax IL2 (% activation). The method, then: As readouts for T-cell activation, IL2 secretion after 24 hours and proliferation after 5 days was measured. Increases in IL2 secretion and proliferation upon compound treatment were assessed as the % of the maximum of reference compound A1. WO 2016/139181 discloses reference compound A1 as example 70. As a counter screen and to make sure that no unwanted TCR-independent activation was triggered, PBS conditions were run for all compounds.
Expanded primary human T-cells were thawed and cultured in RPMI 1640 (Gibco, #61870-010)+5% human serum (HS, Sigma, #H3667)+1 mM Sodium Pyruvate (Gibco, #11360-039)+50 μM 2-mercaptoethanol (Gibco, #31350-010) and lx Pen-Strep (Life Technologies, #15140122) medium at density of 2 Mio/ml for 3 hours in 5% CO2, 37° C. and 95% humidity. For coating of plates, […] or PBS++ with CD3 antibody (concentration depending on donor and determined by CD3 titrations) was added 100 μl/well to Poly-D Lysine coated 96-well plates. Plates were sealed and incubated at room temperature for 3 hours on a table-top rocking platform. After incubation, plates were washed once with PBS−− and filled with 40 μl/well culture medium only. Compounds were then added (see next section) to medium only plates. After 3 hours of culturing the T-cells, cells were filtered through a cell strainer (Miltenyi Biotech, #130-041-407), counted again and concentration was adjusted to 1.25 Mio/ml.
Cells were then seeded 80 μl/well to the 40 μl/well including dispensed compounds according to plate layout. By adding cells, compounds were further diluted 1:3, and resulting in 100k cells/120 μl/well. After 24 hours 40 μl of supernatant was collected carefully from the top while not disturbing the cells and transferred into a round bottom 96 well plate. Collected and frozen supernatant was used for detection of IL2 using the IL-2 Human ProQuantum Immunoassay Kit (Invitrogen) or using the Human IL-2 ELISA Kit (Thermo Fisher).
Compounds were added in a 5 or 6 pt dose response with the Tecan D300e Digital Dispenser, all conditions 3 times more concentrated than the end-concentration, since cells are added afterwards (80 μl cells to 40 μl prepared medium with treatment). The DR was starting at 20 μM or 10 μM final top concentration and a dilution factor of 3.333. The positive control was the reference compound A1 that was added in a dose response as well, additionally to 3 wells of only 20 μM representing the positive stimulator control. All wells were normalized with DMSO to a final concentration of 0.6% (0.2% end-concentration).
The immunoassay is done following the manufacturer's manual (Invitrogen, #A35603).
Additional information: For the immunoassay, MicroAmp™ EnduraPlate™ Optical 384-Well plates are used. Frozen supernatant is thawed and centrifuged for 5 minutes at 1000×g, both steps at 4° C. After centrifugation, required sample amount is taken from the top, and in a separate LightCycler V-bottom plate (working plate) diluted with assay dilution buffer, dilution factor depending on the PBS or CD3 condition but at least 1:3. IL-2 standard and blanks are prepared in the same V-bottom plate, standard with a range of […] (extended version). After preparation, […] of sample dilutions or standard/blanks are transferred to the optical 384-well plate (assay plate) and the 10 μl reaction protocol is being followed. For measurement, the QuantStudio 12K Flex system is used. Raw data is extracted and IL-2 concentrations are calculated with the Thermo Fisher online app (apps.thermofisher.com/apps/proquantum).
ELISA is done following the manufacturer's manual (Thermo Fisher Scientific, #88-7025-88).
Additional information: For the ELISA Nunc MaxiSorp 96 well plates are used. Frozen supernatant is thawed and centrifuged for 5 minutes at 1000×g, both steps at 4° C. After that, required sample amount is taken from the top, and in a separate V-bottom plate diluted with ELISA diluent, dilution factor depending on the PBS or CD3 condition. […]

T1 sequence (P23743 whole entry): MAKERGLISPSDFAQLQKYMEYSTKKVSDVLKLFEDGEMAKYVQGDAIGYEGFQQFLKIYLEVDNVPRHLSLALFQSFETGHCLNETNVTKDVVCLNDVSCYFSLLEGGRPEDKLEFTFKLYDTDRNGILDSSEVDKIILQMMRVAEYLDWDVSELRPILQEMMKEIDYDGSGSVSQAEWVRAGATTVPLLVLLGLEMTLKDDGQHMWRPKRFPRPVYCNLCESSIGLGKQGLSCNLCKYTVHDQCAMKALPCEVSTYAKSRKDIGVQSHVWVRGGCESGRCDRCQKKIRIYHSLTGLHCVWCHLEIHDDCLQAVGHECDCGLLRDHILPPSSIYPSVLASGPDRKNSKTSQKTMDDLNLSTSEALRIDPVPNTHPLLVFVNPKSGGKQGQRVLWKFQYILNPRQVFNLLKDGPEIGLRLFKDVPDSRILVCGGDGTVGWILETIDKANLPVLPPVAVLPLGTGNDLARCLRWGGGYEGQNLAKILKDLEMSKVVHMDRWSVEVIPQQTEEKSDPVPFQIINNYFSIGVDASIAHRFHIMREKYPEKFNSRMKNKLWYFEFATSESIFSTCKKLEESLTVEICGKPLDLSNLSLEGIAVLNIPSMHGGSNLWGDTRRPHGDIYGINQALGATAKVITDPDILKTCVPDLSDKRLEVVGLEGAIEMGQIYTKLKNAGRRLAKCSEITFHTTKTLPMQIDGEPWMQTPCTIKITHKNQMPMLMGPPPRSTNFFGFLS

For the compound `CC(C)(C#N)c1nnc(-c2cc3c(cc2F)C(F)(F)C[C@@H](N)C(=O)N3Cc2ccc(-n3nnc(C(F)(F)F)n3)cc2)o1` (single isomer, unassigned) [Example 20], in test [1], the half-maximal inhibitory concentration (IC50) (commonly the concentration that inhibits the measured activity by half) turned out to be 7.18 µM. In test [2], the half-maximal effective concentration (EC50) (as a rule, the concentration at which the effect is half-maximal) came out at 1.01 µM and the Emax – broadly, the greatest response seen or fitted, relative to the assay's reference – amounted to 161%.

With `N[C@@H]1CC(F)(F)c2cc(F)c(-c3nnc(N4CCCC4)o3)cc2N(Cc2ccc(-n3cnc(C(F)(F)F)n3)cc2)C1=O` (single isomer, unassigned) [Example 21], the half-inhibitory concentration (IC50) in test [1] was found to be 10.9 µM. For the same compound, in test [2], the concentration for a half-maximal effect (EC50) stood at 7.74 µM and the Emax was determined as 63%.

As to `N[C@@H]1CC(F)(F)c2cc(F)c(-c3nnc(N4CCC(F)(F)C4)o3)cc2N(Cc2ccc(-n3cnc(C(F)(F)F)n3)cc2)C1=O` (single isomer, unassigned) [Example 22], the IC50 in test [1] turned out to be 10.6 µM. Also, in test [2], the concentration giving a half-maximal response (EC50) was above 2.73 µM and the maximal effect (Emax) was 31%.

`CC(C)(c1nnc(-c2cc3c(cc2F)C(F)(F)C[C@@H](N)C(=O)N3Cc2ccc(-n3cnc(C(F)(F)F)n3)cc2)o1)S(C)(=O)=O` (single isomer, unassigned) [Example 23]: in test [1], the IC50 was determined as 14.1 µM. In addition, in test [2], the half-maximal effective concentration (EC50) is above 2.73 µM and the Emax turned out to be 42%.

Consider `CC(C)(C#N)c1nnc(-c2cc3c(cc2F)C(F)(F)C[C@@H](N)C(=O)N3Cc2ccc(-c3ccc(OC(F)(F)F)cn3)cc2)o1` (single isomer, unassigned) [Example 24], for which the IC50 in test [1] was 1.86 µM. In test [2], the EC50 came out at 0.0768 µM and the Emax stood at 140%.

Consider `CC(C)(c1nnc(-c2cc3c(cc2F)C(F)(F)C[C@@H](N)C(=O)N3Cc2ccc(-c3ccc(OC(F)(F)F)cn3)cc2)o1)S(C)(=O)=O` (single isomer, unassigned) [Example 26], for which the 50% inhibitory concentration (IC50) in test [1] came to 0.425 µM. In test [2], the EC50 was determined as 0.301 µM and the Emax worked out at 97%.

For `CC(C)(C#N)c1nnc(-c2cc3c(cc2F)C(F)(F)C[C@@H](N)C(=O)N3Cc2ccc(-c3cc(C(F)(F)F)ccn3)cc2)o1` (single isomer, unassigned) [Example 27], the half-inhibitory concentration (IC50) in test [1] came out at 24.6 µM. Besides, in test [2], the concentration for a half-maximal effect (EC50) was above 2.73 µM and the Emax was 181%.

For the compound `CC(C)(C#N)c1nnc(-c2cc3c(cc2F)C(F)(F)C[C@@H](N)C(=O)N3Cc2ccc(-c3ccc(C(F)(F)F)cc3)nc2)o1` (single isomer, unassigned) [Example 28], in test [1], the IC50 came to 31.7 µM. In addition, in test [2], the EC50 was 0.678 µM and the maximal response (Emax) came out at 73%.

On to `CC(C)(c1nnc(-c2cc3c(cc2F)C(F)(F)C[C@@H](N)C(=O)N3Cc2ccc(-n3cc(C(F)(F)F)cn3)cc2)o1)S(C)(=O)=O` (single isomer, unassigned) [Example 29], for which, in test [1], the IC50 came out at 0.551 µM. In addition, in test [2], the concentration for a half-maximal effect (EC50) is above 10 µM and the Emax is 48%.

Turning to `CC(C)(C#N)c1nnc(-c2cc3c(cc2F)C(F)(F)C[C@@H](N)C(=O)N3Cc2ccc(-n3ccc(C(F)(F)F)n3)cc2)o1` (single isomer, unassigned) [Example 30], the half-maximal inhibitory concentration (IC50) in test [1] worked out at 26.4 µM. Moreover, in test [2], the EC50 was determined as 2.61 µM and the Emax was 77%.

Turning to `CC(C)(c1nnc(-c2cc3c(cc2F)C(F)(F)C[C@@H](N)C(=O)N3Cc2ccc(-c3ccc(C(F)(F)F)cc3)cc2)o1)S(C)(=O)=O` (single isomer, unassigned) [Example 32], the IC50 in test [1] came out at 51.3 µM. Further, in test [2], the EC50 stood at 0.6 µM and the maximal effect (Emax) amounted to 27%.

On to `COCCN1CC(c2nnc(-c3cc4c(cc3F)C(F)(F)C[C@@H](N)C(=O)N4Cc3ccc(-c4ccc(C(F)(F)F)cn4)cc3)o2)CC(F)(F)C1` (single isomer, unassigned) [Example 34], for which, in test [1], the concentration for half-maximal inhibition (IC50) is above 60 µM. Moreover, in test [2], the concentration for a half-maximal effect (EC50) is above 10 µM and the Emax was determined as 31%.

In the case of `COC(=O)N1CC2CC(c3nnc(-c4cc5c(cc4F)C(F)(F)C[C@@H](N)C(=O)N5Cc4ccc(-c5ccc(C(F)(F)F)cn5)cc4)o3)(C2)C1` (single isomer, unassigned) [Example 35], the IC50 in test [1] was above 19 µM. In test [2], the EC50 was found to be 0.216 µM and the Emax came to 94%.

Take `COC(=O)N1CC2CC(c3nnc(-c4cc5c(cc4F)C(F)(F)C[C@@H](N)C(=O)N5Cc4ccc(Cl)cc4)o3)(C2)C1` (single isomer, unassigned) [Example 36]: the IC50 in test [1] turned out to be 55.2 µM. Moreover, in test [2], the 50% effective concentration (EC50) stood at 0.856 µM and the Emax worked out at 53%.

With `CC(F)(F)c1ccc(-c2ccc(CN3C(=O)[C@H](N)CC(F)(F)c4cc(F)c(-c5nnc(C(C)(C)C#N)o5)cc43)cc2)nc1` (single isomer, unassigned) [Example 37], the IC50 in test [1] was determined as 11.2 µM. In addition, in test [2], the EC50 came out at 0.457 µM and the Emax amounted to 136%.

For the compound `COc1ccc(-c2ccc(CN3C(=O)[C@H](N)CC(F)(F)c4cc(F)c(-c5nnc(C(C)(C)C#N)o5)cc43)cc2)nc1` (single isomer, unassigned) [Example 38], the IC50 in test [1] is at least 60 µM. For the same compound, in test [2], the EC50 was found to be 2.08 µM and the Emax amounted to 105%.

For the compound `COc1ccc(-c2ccc(CN3C(=O)[C@H](N)CC(F)(F)c4cc(F)c(-c5nnc(C(C)(C)S(C)(=O)=O)o5)cc43)cc2)nc1` (single isomer, unassigned) [Example 39], the IC50 in test [1] is 44.4 µM. For the same compound, in test [2], the half-maximal effective concentration (EC50) was above 10 µM and the Emax turned out to be 35%.

Take `CC(C)(C#N)c1nnc(-c2cc3c(cc2F)C(F)(F)C[C@@H](N)C(=O)N3Cc2ccc(-c3ccc(C(F)F)cn3)cc2)o1` (single isomer, unassigned) [Example 40]: the 50% inhibitory concentration (IC50) in test [1] worked out at 15.3 µM. Also, in test [2], the half-maximal effective concentration (EC50) was above 10 µM and the maximal response (Emax) was found to be 27%.

For `CC(C)(C#N)c1nnc(-c2cc3c(cc2F)C(F)(F)C[C@@H](N)C(=O)N3Cc2ccc(-c3ccc(OC(F)F)cn3)cc2)o1` (single isomer, unassigned) [Example 41], the IC50 in test [1] stood at 24 µM. In test [2], the concentration for a half-maximal effect (EC50) is 0.884 µM and the Emax was 131%.
